Reference: patent publication US12497409B2, “Crystal form of gonadotropin releasing hormone antagonist, preparation method therefor, and use thereof” (Shenzhen Rentai Pharmatech Ltd., priority 2019, dated 2025)

How the values were obtained:
Assay type in all cases: physicochemical
[1] = Saturation solubility in water (HPLC); details: for Saturation solubility: in water, room temperature, stirred for 12 hours, excess solid, HPLC; for solubility, in words: saturation solubility, forms C and D compared with crystal form A
Source text: Samples for test: a crystal form C and a crystal form D of a compound of a formula (I), their preparation methods being respectively shown in Example 1 and Example 2, a preparation method of the crystal form A of the compound of the formula (I) being shown in Comparative example 1.
Test method: the crystal form A, the crystal form C, and the crystal form D of the compound of the formula (I) were respectively taken, to measure their saturation solubility in water, a specific method was: a suitable amount of the samples for test were respectively taken, and put into a […] sample bottle, 3 ml of a water solution was added, the solid was excess, and the obtained solution was placed at room temperature and stirred for 12 hours, and solubility in water was measured by using an HPLC method. The operation conditions of HPLC are as follows:
instrument: high performance liquid chromatograph (model: Thermo U3000)
chromatographic column: Agilent C18 column (5 μm, 150 mm×4.6 mm)
mobile phase composition and gradient elution program: […]
Detection wavelength: 254.4 nm;
column temperature: 30° C.

[2] = Stability test (illumination, high temperature, high humidity; XRPD and HPLC purity); details: high humidity (25° C., 92.5% RH), 10 days
[3] = as above; details: for Initial purity (day 0): day 0, before stress, HPLC; for crystal transformation (XRPD): 10 days
Protocol: Illumination stability: samples of the crystal form C and the crystal form D of the compound of the formula (I) (respectively prepared in Example 1 and Example 2) were respectively taken and placed at 25° C. under an illumination condition of 4500 Lux for 10 days, and samples were taken respectively on day 5 and day 10 at fixed time points to determine XRPD patterns of the crystal forms C and D and the content of N-(4-(1-(2,6-difluorobenzyl)-5-((dimethylamino)methyl)-3-(6-methoxy-3-pyridazinyl)-2,4-dioxo-1,2,3,4-tetrahydrothieno[2,3-d]pyrimidin-6-yl)phenyl)-N′-methoxyurea in the crystal forms C and D, which were compared with those of the samples on day 0. High temperature stability: samples of the crystal form C and the crystal form D of the compound of the formula (I) (respectively prepared in Example 1 and Example 2) were respectively taken and placed at 60° C. for 10 days, and samples were taken respectively on day 5 and day 10 at fixed time points to determine XRPD patterns of the crystal forms C and D and the content of N-(4-(1-(2,6-difluorobenzyl)-5-((dimethylamino)methyl)-3-(6-methoxy-3-pyridazinyl)-2,4-dioxo-1,2,3,4-tetrahydrothieno[2,3-d]pyrimidin-6-yl)phenyl)-N′-methoxyurea in the crystal form C and the crystal form D, which were compared with those of the samples on day 0. High humidity stability: samples of the crystal form C and the crystal form D of the compound of the formula (I) (respectively prepared in Example 1 and Example 2) were respectively taken and placed at 40° C. at 75% RH for 10 days, and samples were taken respectively on day 5 and day 10 at fixed time points to determine XRPD patterns of the crystal forms C and D and the content of N-(4-(1-(2,6-difluorobenzyl)-5-((dimethylamino)methyl)-3-(6-methoxy-3-pyridazinyl)-2,4-dioxo-1,2,3,4-tetrahydrothieno[2,3-d]pyrimidin-6-yl)phenyl)-N′-methoxyurea in the crystal form C and the crystal form D, which were compared with those of the samples on day 0. A specific stability test method can refer to the method in appendix XI C of Part II of Chinese Pharmacopoeia (2015 edition); the purity detection adopts an HPLC method, and the purity can be determined by an external standard method with reference to the method in appendix VD of Chinese Pharmacopoeia (2015 edition) by using the samples on day 0 as a reference substance. instrument: high performance liquid chromatograph (model: Thermo U3000) chromatographic column: Agilent C18 column (5 μm, 150 mm×4.6 mm) mobile phase composition and gradient elution program: [table] detection wavelength: 254.4 nm; flow rate: 1 ml/min; sample size:15 μL; column temperature: 30° C.

[4] = Hygroscopicity test, dynamic vapor sorption (DVS); details: for hygroscopicity, in words: forms C and D compared with crystal form A
[5] = 25° C., 4500 Lux (illumination), listed as crystal form C
[6] = 40° C., 75% RH (high humidity), listed as crystal form C
[7] = 60° C. (high temperature), listed as crystal form C
[8] = 25° C., 4500 Lux (illumination), listed as crystal form D
[9] = 40° C., 75% RH (high humidity), listed as crystal form D
[10] = 60° C. (high temperature), listed as crystal form D

SMILES: CONC(=O)Nc1ccc(-c2sc3c(c2CN(C)C)c(=O)n(-c2ccc(OC)nn2)c(=O)n3Cc2c(F)cccc2F)cc1 [Crystal form C, N-(4-(1-(2,6-difluorobenzyl)-5-((dimethylamino)methyl)-3-(6-methoxy-3-pyridazinyl)-2,4-dioxo-1,2,3,4-tetrahydrothieno[2,3-d]pyrimidin-6-yl)phenyl)-N′-methoxyurea]
- Saturation solubility ([1]; listed as crystal form C): 101.75 µg/mL
- solubility, in words ([1]; listed as crystal form C): significantly improved
- crystal transformation (XRPD) [2]: no crystal transformation
- Purity change on day 10 [3, 5]: 0.49%
- Purity on day 5 [3, 5]: 98.99%
- Purity on day 10 [3, 5]: 98.84%
- Purity change on day 10 [3, 6]: 3.33%
- Purity on day 5 [3, 6]: 96.88%
- Purity on day 10 [3, 6]: 96%
- Purity change on day 10 [3, 7]: 2.58%
- Purity on day 5 [3, 7]: 97.89%
- Purity on day 10 [3, 7]: 96.75%
- Initial purity (day 0) ([3]; listed as crystal form C): 99.33%
- crystal transformation (XRPD) ([3]; high temperature (60° C.)): no crystal transformation
- crystal transformation (XRPD) ([3]; strong illumination (25° C., 4500 Lux)): no crystal transformation
- hygroscopicity, in words ([4]; listed as crystal form C): significantly decreased

SMILES: CONC(=O)Nc1ccc(-c2sc3c(c2CN(C)C)c(=O)n(-c2ccc(OC)nn2)c(=O)n3Cc2c(F)cccc2F)cc1 [Crystal form D, N-(4-(1-(2,6-difluorobenzyl)-5-((dimethylamino)methyl)-3-(6-methoxy-3-pyridazinyl)-2,4-dioxo-1,2,3,4-tetrahydrothieno[2,3-d]pyrimidin-6-yl)phenyl)-N′-methoxyurea]
- Saturation solubility ([1]; listed as crystal form D): 87.21 µg/mL
- solubility, in words ([1]; listed as crystal form D): significantly improved
- Purity change on day 10 [3, 8]: 0.50%
- Purity on day 5 [3, 8]: 98.1%
- Purity on day 10 [3, 8]: 98.57%
- Purity change on day 10 [3, 9]: 1.86%
- Purity on day 5 [3, 9]: 97.88%
- Purity on day 10 [3, 9]: 97.21%
- Purity change on day 10 [3, 10]: 2.56%
- Purity on day 5 [3, 10]: 96.25%
- Purity on day 10 [3, 10]: 96.51%
- Initial purity (day 0) ([3]; listed as crystal form D): 99.07%
- hygroscopicity, in words ([4]; listed as crystal form D): significantly decreased

SMILES: CONC(=O)Nc1ccc(-c2sc3c(c2CN(C)C)c(=O)n(-c2ccc(OC)nn2)c(=O)n3Cc2c(F)cccc2F)cc1 [Crystal form A, N-(4-(1-(2,6-difluorobenzyl)-5-((dimethylamino)methyl)-3-(6-methoxy-3-pyridazinyl)-2,4-dioxo-1,2,3,4-tetrahydrothieno[2,3-d]pyrimidin-6-yl)phenyl)-N′-methoxyurea]
- Saturation solubility [1]: 28.50 µg/mL
- solubility, in words ([1]; listed as crystal form A): low solubility
- moisture absorption (hygroscopy gain) ([4]; 25° C., humidity gradually increased from 0 to 50% RH): 0.57%
- hygroscopicity (hygroscopy gain) ([4]; 25° C., humidity gradually increased from 0 to 90% RH): 25.84%
- hygroscopicity, in words ([4]; listed as crystal form A): high hygroscopicity
